Data: EP3964497A1, “SUBSTITUTED VICINAL DIAMINE COMPOUNDS AND THEIR USE IN THE TREATMENT, AMELIORATION OR PREVENTION OF PAIN” (priority 2020, dated 2022)
Where two headings read alike, the source gives them in different places.

Assays:
δOR = target: T1, δOR (Homo sapiens, UniProt P41143); assay: competitive radioligand binding with [3H]diprenorphine, membranes of transfected HEK 293T cells
T1 construct: expressed in transfected cells; host or cells: HEK 293T cells, transient transfection, membrane preparation
Protocol: (§1) To verify the subtype selectivity of the described compounds for µOR over δOP and κOR, respectively, the binding affinities of the described examples to the different human opioid receptors in an in-vitro test system were measured.
(§2) For the determination of receptor binding affinity competitive radioligand binding experiments were performed as described in literature (H. Huebner, C. Haubmann, W. Utz, P. Gmeiner, J. Med. Chem., 2000, 43, 756-762). In brief, HEK 293T cells were transiently transfected with the cDNAs coding for the human opioid receptor subtypes µOR, δOR, and kOR, respectively, using a solution of polyethylenimine in PBS (PEI, linear, 25 kDa, Polysciences) as transfection reagent at a 3:1 PEI to cDNA ratio (I. Fish, A. Stoessel, K. Eitel, C. Valant, S. Albold, H. Huebner, D. Moeller, M.J. Clark, R.K. Sunahara, A. Christopoulos, B.K. Shoichet, P. Gmeiner, J. Med. Chem., 2017, 60, 9239-9250). After preparation of membranes, radioligand displacement assays were run in 96-well format at a final volume of 200 µL in binding buffer (50 mM Tris-HCI, 1 mM EDTA, 5 mM MgCl2, 100 µg/mL bacitracin, 5 µg/mL soybean trypsin inhibitor, pH 7.4) with the radioligand [^3H]diprenorphine (specific activity = 31 Ci/mmol) at a final concentration of 0.20-0.30 nM. […] Unspecific binding was determined in the presence of 10 µM of the naloxone. Protein concentrations were determined employing the method of Lowry with bovine serum albumin as standard (O.H. Lowry, N.J. Rosebrough, A.L. Farr, R.J. Randall, J. Biol. Chem., 1951, 193, 265-275). The resulting competition curves of the receptor binding experiments were analyzed by nonlinear regression. The data were initially fit using a sigmoid model to provide IC50 values, which were subsequently transformed to Ki values according to the equation of Cheng and Prusoff (Y.-C. Cheng, W. H. Prusoff, Biochem. Pharmacol., 1973, 22, 3099-3108). Three to seven experiments per compound were performed, with each concentration in triplicate.

κOR = target: T2, κOR (Homo sapiens, UniProt P41145); assay: as above
T2 construct: expressed in transfected cells; host or cells: HEK 293T cells, transient transfection, membrane preparation
Protocol: as §1
After preparation of membranes, radioligand displacement assays were run in 96-well format at a final volume of 200 µL in binding buffer (50 mM Tris-HCI, 1 mM EDTA, 5 mM MgCl2, 100 µg/mL bacitracin, 5 µg/mL soybean trypsin inhibitor, pH 7.4) with the radioligand [^3H]diprenorphine (specific activity = 31 Ci/mmol) at a final concentration of 0.20-0.30 nM. […] Unspecific binding was determined in the presence of 10 µM of the naloxone. […] The resulting competition curves of the receptor binding experiments were analyzed by nonlinear regression. […] Three to seven experiments per compound were performed, with each concentration in triplicate.

µOR [1] = target: T3, µOR (Homo sapiens, UniProt P35372); assay: G-protein mediated signaling, IP1 accumulation assay (HTRF) in HEK-293T cells with hybrid G-protein Gαqi; assay type: cell-based; design: expressed in transfected cells; host or cells: HEK-293T cells, transient transfection; conditions: for Emax: HEK-293T, read-out: G-protein signaling Emax
Protocol: (§3) Functionally selective drugs, which are biased towards Gi protein activation over β-arrestin signaling at the µOR are indicated to show an improved side effect profile. Thus, the characterization of the functional properties of the described examples at the µOR were performed by determination of the ligand stimulated G-protein related signaling and β-arrestin recruitment applying cell based in-vitro test systems. Full and partial agonists as well as antagonists for G protein related signaling were identified.
The determination of G-protein stimulated µOR activation was measured applying an IP1 accumulation assay as described previously (J. Kruell, S.K. Fehler, L. Hofmann, N. Nebel, S. Maschauer, O. Prante, P. Gmeiner, H. Lanig, H. Huebner, M.R. Heinrich. ChemMedChem 2020, 15, 1175-1186. C. Gentzsch, K. Seier, A. Drakopoulos, M.-L. Jobin, Y. Lanoiselee, Z. Koszegi, D. Maurel, R. Sounier, H. Huebner, P. Gmeiner, S. Granier, D. Calebiro, M. Decker. Ang. Chem. Int. Ed. 2020, 59, 2-9). In brief, HEK-293T cells were grown to confluence of approximately 70% and transiently transfected with the cDNA of the human µOR receptor and the hybrid G-protein Gαqi. After one day cells were seeded into 384-well microplates. For testing cells were incubated with test compounds (final range of concentration from 1 pM up to 10 µM) for 180 min at 37 °C followed by addition of detection reagents. Time resolved fluorescence resonance energy transfer (HTRF) was determined using a microplate reader. Each compound was tested in duplicates in 3-9 individual experiments in comparison to the reference compound DAMGO. The resulting dose response curves were analyzed by nonlinear regression using the algorithms in PRISM 6.0 (GraphPad software, San Diego, CA), fitted with a sigmoid model and normalized to basal activity (0 %) and the maximal effect caused by the reference full agonist DAMGO (100 %).
(§4) In the above table, the numbers indicate mean EC50 values in nM and Emax values relative to the full effect of reference agonist DAMGO [=100%], respectively and are derived from 3-9 individual experiments for G-protein signaling and 3-8 tests for arrestin recruitment. ND = not determined.

µOR [2] = target: T3, µOR; assay: competitive radioligand binding with [3H]diprenorphine, membranes of transfected HEK 293T cells; design: expressed in transfected cells; host or cells: HEK 293T cells, transient transfection, membrane preparation
Protocol: as §1, §2

µOR [3] = target: T3, µOR; assay: β-arrestin-2 recruitment, enzyme-fragment complementation assay in HEK-293 cells; assay type: cell-based; design: expressed in transfected cells; host or cells: HEK-293 cells stably expressing EA-tagged β-arrestin-2, transiently transfected with µOR-PK1; conditions: for Emax: HEK293, relative to the full effect of reference agonist DAMGO [=100%]; for β-arrestin recruitment EC50: mean of 3-8 tests, 90 min incubation, CBA = could not be analyzed (no dose-response curve)
Protocol: as §3
Measurement of β-arrestin-2 recruitment was done applying an enzyme-fragment complementation assay as described previously (C. Gentzsch, K. Seier, A. Drakopoulos, M.-L. Jobin, Y. Lanoiselee, Z. Koszegi, D. Maurel, R. Sounier, H. Huebner, P. Gmeiner, S. Granier, D. Calebiro, M. Decker. Ang. Chem. Int. Ed. 2020, 59, 2-9. J. Hellmann, M. Drabek, J. Yin, J. Gunera, T. Proell, F. Kraus, C.J. Langmead, H. Huebner, D. Weikert, P. Kolb, D.M. Rosenbaum, P. Gmeiner. PNAS 2020, 117, 18059-18067). In brief, HEK-293 cells stably expressing the enzyme acceptor (EA) tagged β-arrestin-2 fusion protein were transiently co-transfected with the ProLink tagged µOR-PK1 After 24 h cells were transferred into 384-well microplates and cultured for further 24 h. To start arrestin recruitment compounds were added to the cells to get a final concentration in a range of 10 pM to 100 µM. After incubation for 90 min reaction was stopped by addition of detection mix. Chemiluminescence was determined in duplicates (3-8 individual experiments for each compound in comparison to the reference agonist DAMGO). Data analysis was done as described above.
as §4

[4] = radioligand [3H]diprenorphine, number in brackets = number of experiments, read-out: mean Ki value δOR
[5] = radioligand [3H]diprenorphine, number in brackets = number of experiments, read-out: mean Ki value κOR

| SMILES | Ki (δOR; [4]) [nM] | Ki (κOR; [5]) [nM] | EC50 (µOR [1]) [nM] | Emax (µOR [1]) [%] | Ki (µOR [2]) [nM] | Emax (µOR [3]) [%] | β-arrestin recruitment EC50 (µOR [3]) | Ki (δOR) [nM] | Ki (κOR) [nM] | Ki (µOR [2]; radioligand [3H]diprenorphine, number in brackets = number of experiments, read-out: mean Ki value µOR) [nM] | G-protein signaling EC50 (µOR [1]; mean of 3-9 experiments, 180 min at 37 °C, CBA = could not be analyzed (no dose-response curve)) | EC50 (µOR [1]; mean of 3-9 experiments, 180 min at 37 °C, CBA = could not be analyzed (no dose-response curve), read-out: G-protein signaling EC50) [nM] | EC50 (µOR [3]) [nM] |
| --- | --- | --- | --- | --- | --- | --- | --- | --- | --- | --- | --- | --- | --- |
| CN(C)[C@H](CNC(=O)/C=C/c1ccccc1C(F)(F)F)Cc1ccc(O)cc1 [Example 7, (S,E)-N-(2-(Dimethylamino)-3-(4-hydroxyphenyl)propyl)-3-(2-(trifluoromethyl)phenyl)acrylamide] | 180 | 140 | 13 | 44 | 28 | < 5 | CBA | – | – | – | – | – | – |
| CN(C)[C@H](CNC(=O)/C=C/c1cccc(C(F)(F)F)c1)Cc1ccc(O)cc1 [Example 8, (S,E)-N-(2-(Dimethylamino)-3-(4-hydroxyphenyl)propyl)-3-(3-(trifluoromethyl)phenyl)acrylamide formiate] | – | – | 15 | 100 | 30 | < 5 | CBA | 120 | 580 | – | – | – | – |
| CN(C)[C@H](CNC(=O)/C=C/c1ccc(C(F)(F)F)cc1)Cc1ccc(O)cc1 [Example 9, (S,E)-N-(2-(Dimethylamino)-3-(4-hydroxyphenyl)propyl)-3-(4-(trifluoromethyl)phenyl)acrylamide] | 1100 | 2800 | 67 | 92 | – | < 5 | CBA | – | – | 170 | – | – | – |
| Cc1cc(O)cc(C)c1C[C@H](N)CNC(=O)/C=C/c1ccccc1 [Example 10, (S)-N-(2-Amino-3-(4-hydroxy-2,6-dimethylphenyl)propyl)cinnamamide formiate] | – | – | – | < 5 | 58 | < 5 | CBA | 510 | 440 | – | CBA | – | – |
| NC(=O)c1ccc(C[C@H](N)CNC(=O)/C=C/c2cccc(C(F)(F)F)c2)cc1 [Example 14, (S,E)-4-(2-Amino-3-(3-(3-(trifluoromethyl)phenyl)acrylamido)propyl)benzamide formiate] | – | – | – | 75 | 460 | < 5 | CBA | 2900 | 5600 | – | – | 2200 | – |
| CN(C)[C@H](CNC(=O)/C=C/c1cccc(C(F)(F)F)c1)Cc1ccc(C(N)=O)cc1 [Example 15, (S,E)-4-(2-(Dimethylamino)-3-(3-(3-(trifluoromethyl)phenyl)acrylamido)propyl)benzamide formiate] | – | – | 6.3 | 95 | 6.7 | 5 | – | 55 | 450 | – | – | – | 130 |
| CN(C)[C@H](CNC(=O)/C=C/c1cccc2ccccc12)Cc1ccc(C(N)=O)cc1 [Example 18, (S,E)-4-(2-(Dimethylamino)-3-(3-(naphthalen-1-yl)acrylamido)propyl)benzamide formiate] | – | – | 9.8 | 92 | 6.2 | 4 | – | 130 | 200 | – | – | – | 120 |
| CN(C)[C@H](CNC(=O)/C=C/c1ccsc1)Cc1ccc(O)cc1 [Example 19, (S,E)-N-(2-(Dimethylamino)-3-(4-hydroxyphenyl)propyl)-3-(thiophen-3-yl)acrylamide] | – | 130 | 7.5 | 53 | 8.5 | < 5 | CBA | 59 | – | – | – | – | – |
